From US20180332790A1 (priority 2015, published 2018)
Where “and” joins values, the source holds several entries; their conditions need not be identical. Equal entries are not always repeated. Entries after “also recorded” stand apart in the source; their conditions may differ.

Experiments:
maize [1] = conditions: in vivo
maize [2] = conditions: in vivo; remark: listed apart in the source

CCCCCCCCCCCCCCCC(=O)OCC [PAEE, palmitic acid ethyl ester]
de novo haploid induction (in words) (maize [1]): induces haploids

CCCCC/C=C\C/C=C\C/C=C\C/C=C\CCCC(=O)OC [AAME, arachidonic acid methyl ester]
de novo haploid induction (in words) (maize [1]): triggered de novo haploid induction

CC1=C(CC/C(C)=C/CCC2=CC[C@H](C3=CC(=O)O[C@H]3O)O[C@H]2O)C(C)(C)CCC1 [manoalide, reference compound]
de novo haploid induction (in words) (maize [1]): triggered de novo haploid induction; also recorded: able to induce haploid formation de novo

CCCCCCCCCCCCCCCCCC(=O)OC[C@H](COP(=O)([O-])OCC[N+](C)(C)C)OC(=O)CCCCCCCCCCCCCCCCC [DSPC, 1,2-distearoyl-sn-glycero-3-phosphatidyl choline]
de novo haploid formation (in words) (maize [1]): achieved de novo haploid formation
de novo haploid induction (in words) (maize [1]): triggered de novo haploid induction; also recorded: highly active

CCCCCCCC/C=C\CCCCCCCC(=O)O[C@H](COC(=O)CCCCCCCCCCCCCCCCC)COP(=O)(O)OCCN [1-stearyl-2-oleoyl-sn-phosphatidylethanolamine]
de novo haploid induction (in words) (maize [1]): haploid inducing compound

CCCCC/C=C\C/C=C\CCCCCCCC(=O)OCC [LLAEE, linoleic acid ethyl ester]
AVERAGE/EAR HIR (maize [2]): 13.0% and 15.4%
AVERAGE/EAR haploids (maize [2]): 23.1 and 27.9
AVERAGE/EAR k. a. rate (maize [2]): 29.9% and 33.0%
AVERAGE/EAR k. a. rate, vs control (maize [2]): −3.7% and −2.9%
AVERAGE/EAR kernels (maize [2]): 194.1 and 194.6
AVERAGE/EAR kernels, vs control (maize [2]): +43.3
decrease in embryo abortion frequency compared to control buffer (maize [2]): 3.7%
effect on embryo abortion and kernel formation in haploid inducer crosses (in words) (maize [2]): reduces the rate of embryo abortion and increases the rate of kernel formation; also recorded: increase the rate of viable kernel formation by reducing fertilization failure and embryo abortion
effect on haploid induction rate / number of haploids in haploid inducer crosses (in words) (maize [2]): boosted the haploid induction rate; also recorded: increase the number of haploids formed and/or the rate of haploid formation
increase in haploid induction rate compared to control buffer (maize [2]): 2.4%
increase in haploids recovered per ear compared to control buffer (maize [2]): over 8 haploids per ear
increase in number of kernels per ear compared to control buffer (maize [2]): over 43 per ear

CCCCCCCC/C=C\CCCCCCCC(=O)OCC [OAEE, oleic acid ethyl ester]
de novo haploid induction (in words) (maize [1]): triggered de novo haploid induction

CCCCC/C=C\C/C=C\C/C=C\C/C=C\CCCC(=O)O [arachidonic acid]
de novo haploid induction (in words) (maize [1]): triggered

CCCCC/C=C\C/C=C\CCCCCCCC(=O)O [LLA, linoleic acid]
decrease in embryo abortion frequency compared to control buffer (maize [2]): 2.9%
effect on embryo abortion and kernel formation in haploid inducer crosses (in words) (maize [2]): reduces the rate of embryo abortion and increases the rate of kernel formation; also recorded: increase the rate of viable kernel formation by reducing fertilization failure and embryo abortion
effect on haploid induction rate / number of haploids in haploid inducer crosses (in words) (maize [2]): boosted the haploid induction rate; also recorded: increase the number of haploids formed and/or the rate of haploid formation
increase in haploid induction rate compared to control buffer (maize [2]): 1.5%
increase in haploids recovered per ear compared to control buffer (maize [2]): 7.6 haploids per ear
increase in number of kernels per ear compared to control buffer (maize [2]): 41 per ear
de novo haploid induction (in words) (maize [1]): triggered de novo haploid induction
